Data as given in patent publication US20190380978A1, “SOLID ORAL DOSAGE FORMS OF 2R,6R-HYDROXYNORKETAMINE OR DERIVATIVES THEREOF” (priority 2016, published 2019).

What was measured:
5-HT2A = 5-HT2A (Homo sapiens, UniProt P28223); test: binding to 5-HT2A receptor
Source text: (§1) 2R,6R-hydroxynorketamine was investigated for binding to monoamine oxidases A and B, monoamine transporters, as well as a variety of 5HT receptors.

5-HT2C = target: T1, 5-HT2C (Homo sapiens, UniProt P28335); test: binding to 5-HT2C receptor
T1 sequence (P28335 33-458): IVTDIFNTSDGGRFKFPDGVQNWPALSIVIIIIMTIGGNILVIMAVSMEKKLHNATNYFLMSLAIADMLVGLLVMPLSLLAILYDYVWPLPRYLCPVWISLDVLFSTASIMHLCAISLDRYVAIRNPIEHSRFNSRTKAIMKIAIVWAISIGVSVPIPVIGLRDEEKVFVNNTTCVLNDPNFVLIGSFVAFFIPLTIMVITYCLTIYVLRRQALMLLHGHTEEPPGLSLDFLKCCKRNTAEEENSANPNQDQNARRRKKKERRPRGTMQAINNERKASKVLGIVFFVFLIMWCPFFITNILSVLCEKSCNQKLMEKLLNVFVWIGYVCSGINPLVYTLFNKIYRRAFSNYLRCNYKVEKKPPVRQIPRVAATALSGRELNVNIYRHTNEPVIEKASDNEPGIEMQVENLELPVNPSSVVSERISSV
Source text: as §1

[1] = target: norepinephrine transporter (Homo sapiens, UniProt P23975); test: binding to norepinephrine transporter
norepinephrine transporter, sequence (P23975 whole entry, species assumed): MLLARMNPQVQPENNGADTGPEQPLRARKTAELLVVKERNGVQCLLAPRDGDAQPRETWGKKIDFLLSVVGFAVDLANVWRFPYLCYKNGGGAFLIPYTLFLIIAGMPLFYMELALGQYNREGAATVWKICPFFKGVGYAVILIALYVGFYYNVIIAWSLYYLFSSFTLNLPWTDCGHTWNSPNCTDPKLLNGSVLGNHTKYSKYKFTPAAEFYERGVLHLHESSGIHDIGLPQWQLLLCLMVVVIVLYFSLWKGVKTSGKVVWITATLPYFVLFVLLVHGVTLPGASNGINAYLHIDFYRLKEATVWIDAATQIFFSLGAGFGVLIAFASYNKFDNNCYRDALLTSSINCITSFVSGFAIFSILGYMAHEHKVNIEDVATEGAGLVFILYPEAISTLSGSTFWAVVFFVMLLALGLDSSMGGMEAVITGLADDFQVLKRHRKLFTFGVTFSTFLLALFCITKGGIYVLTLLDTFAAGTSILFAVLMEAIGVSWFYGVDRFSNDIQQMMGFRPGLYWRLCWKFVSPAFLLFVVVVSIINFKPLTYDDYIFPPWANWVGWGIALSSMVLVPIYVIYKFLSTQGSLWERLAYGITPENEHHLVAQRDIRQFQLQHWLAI
Source text: as §1

5-HT transporter = 5-HT transporter (Homo sapiens, UniProt P31645); test: binding to 5-HT transporter
5-HT transporter, sequence (P31645 whole entry, species assumed): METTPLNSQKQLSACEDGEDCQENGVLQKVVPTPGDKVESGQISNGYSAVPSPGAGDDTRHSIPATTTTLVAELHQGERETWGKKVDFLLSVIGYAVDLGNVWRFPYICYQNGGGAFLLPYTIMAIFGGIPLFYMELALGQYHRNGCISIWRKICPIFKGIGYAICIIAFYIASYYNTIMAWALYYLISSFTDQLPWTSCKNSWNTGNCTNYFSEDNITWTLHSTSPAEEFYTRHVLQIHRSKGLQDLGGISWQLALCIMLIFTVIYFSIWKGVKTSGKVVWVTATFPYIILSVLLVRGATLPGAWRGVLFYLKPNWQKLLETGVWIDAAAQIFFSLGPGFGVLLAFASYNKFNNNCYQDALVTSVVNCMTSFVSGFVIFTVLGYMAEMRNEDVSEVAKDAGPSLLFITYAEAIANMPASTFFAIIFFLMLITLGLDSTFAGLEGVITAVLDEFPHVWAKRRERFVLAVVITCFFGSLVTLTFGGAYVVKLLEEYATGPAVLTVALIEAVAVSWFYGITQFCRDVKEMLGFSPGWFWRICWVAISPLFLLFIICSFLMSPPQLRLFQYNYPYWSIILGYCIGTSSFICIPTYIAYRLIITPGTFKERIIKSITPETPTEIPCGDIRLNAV
Source text: as §1

5-HT1, Non-Selective = test: binding to 5-HT1 receptors, non-selective
Source text: as §1
An absence of interaction between 2R,6R-hydroxynorketamine and 5HT1 receptors is also of note. Rare postmarketing reports have described patients with weakness, hyperreflexia, and incoordination following the use of an SSRI and the 5HT1 agonist, sumatriptan. The possibility of such interactions should also be considered if other 5HT1 agonists are to be used in combination with SSRIs.

MAO-B = MAO-B (Homo sapiens, UniProt P27338); test: binding to monoamine oxidase B
MAO-B, sequence (P27338 whole entry, species assumed): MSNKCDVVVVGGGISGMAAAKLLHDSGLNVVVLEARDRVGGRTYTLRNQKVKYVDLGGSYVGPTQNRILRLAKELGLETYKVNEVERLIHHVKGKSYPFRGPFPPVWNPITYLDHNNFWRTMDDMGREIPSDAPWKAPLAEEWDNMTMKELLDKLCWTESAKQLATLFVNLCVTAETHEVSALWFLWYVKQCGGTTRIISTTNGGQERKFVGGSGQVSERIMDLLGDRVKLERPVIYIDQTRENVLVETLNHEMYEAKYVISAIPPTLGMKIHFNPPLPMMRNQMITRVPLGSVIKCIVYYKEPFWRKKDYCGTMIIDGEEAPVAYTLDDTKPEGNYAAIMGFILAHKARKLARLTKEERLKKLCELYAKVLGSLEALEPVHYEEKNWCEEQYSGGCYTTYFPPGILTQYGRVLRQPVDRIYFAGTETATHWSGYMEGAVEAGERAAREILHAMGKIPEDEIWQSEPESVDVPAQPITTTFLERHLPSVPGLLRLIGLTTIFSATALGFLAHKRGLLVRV
Source text: as §1

plasma binding proteins [2] = test: fraction unbound in 100% plasma, mouse; assay type: in vitro ADME
Source text: (§2) While the risk of DDIs due to displacement from plasma binding proteins (PPBs) is relatively low, it should be considered for drugs which display a high proportion PPB (fraction unbound (fu)<1%).
(§3) The fu was investigated for 2R,6R-hydroxynorketamine using a 100% plasma from 4 test species.

plasma binding proteins [3] = test: fraction unbound in 100% plasma, dog; assay type: in vitro ADME
Source text: as §2, §3

CYP2C8 = target: T2, CYP2C8 (Homo sapiens, UniProt P10632); test: CYP inhibition assay, CYP2C8; assay type: in vitro ADME
T2 sequence (P10632 1-490): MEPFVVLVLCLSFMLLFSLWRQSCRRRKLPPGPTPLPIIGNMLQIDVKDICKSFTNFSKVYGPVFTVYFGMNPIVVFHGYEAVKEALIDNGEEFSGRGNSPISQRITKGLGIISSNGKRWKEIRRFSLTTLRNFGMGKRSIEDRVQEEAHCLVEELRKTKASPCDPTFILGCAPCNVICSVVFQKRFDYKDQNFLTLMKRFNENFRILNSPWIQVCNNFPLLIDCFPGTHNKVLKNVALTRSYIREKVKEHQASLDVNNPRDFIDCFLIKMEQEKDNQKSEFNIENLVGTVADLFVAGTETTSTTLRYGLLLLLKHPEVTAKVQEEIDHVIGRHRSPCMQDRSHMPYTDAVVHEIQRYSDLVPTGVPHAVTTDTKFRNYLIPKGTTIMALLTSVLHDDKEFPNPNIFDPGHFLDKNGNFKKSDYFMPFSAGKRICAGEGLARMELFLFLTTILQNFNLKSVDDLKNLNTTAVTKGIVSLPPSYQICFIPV
Source text: (§4) Cytochrome P450s (CYPs) are a family of enzymes that play a primary role in the metabolism of a wide variety of drugs. 2R,6R-hydroxynorketamine was investigated for its potential to inhibit the action of 7 key CYP enzymes using an inhibition assay measuring reduction in the formation of metabolites compared to control.

CYP2C9 = CYP2C9 (Homo sapiens, UniProt P11712); test: CYP inhibition assay, CYP2C9; assay type: in vitro ADME
CYP2C9, sequence (P11712 whole entry): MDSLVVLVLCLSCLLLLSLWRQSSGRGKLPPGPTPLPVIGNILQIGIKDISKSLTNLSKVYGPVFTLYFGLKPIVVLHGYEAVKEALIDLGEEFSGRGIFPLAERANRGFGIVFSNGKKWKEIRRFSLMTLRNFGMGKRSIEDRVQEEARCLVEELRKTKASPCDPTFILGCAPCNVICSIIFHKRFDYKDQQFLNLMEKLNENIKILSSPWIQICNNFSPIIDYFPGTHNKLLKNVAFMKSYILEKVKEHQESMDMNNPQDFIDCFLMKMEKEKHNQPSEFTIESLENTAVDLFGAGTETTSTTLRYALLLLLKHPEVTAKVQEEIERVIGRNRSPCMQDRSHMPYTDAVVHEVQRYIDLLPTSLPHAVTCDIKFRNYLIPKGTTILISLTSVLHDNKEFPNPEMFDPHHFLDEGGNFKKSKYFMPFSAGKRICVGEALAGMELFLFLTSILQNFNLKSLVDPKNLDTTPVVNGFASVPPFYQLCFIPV
Source text: as §4

CYP3A4 = CYP3A4 (Homo sapiens, UniProt P08684); test: CYP inhibition assay, CYP3A4 (substrates midazolam and testosterone); assay type: in vitro ADME; settings: for inhibition at 0.4 µM / inhibition at 1 µM / inhibition at 4 µM / inhibition at 10 µM / inhibition at 40 µM / inhibition at 100 µM: human
CYP3A4, sequence (P08684 whole entry): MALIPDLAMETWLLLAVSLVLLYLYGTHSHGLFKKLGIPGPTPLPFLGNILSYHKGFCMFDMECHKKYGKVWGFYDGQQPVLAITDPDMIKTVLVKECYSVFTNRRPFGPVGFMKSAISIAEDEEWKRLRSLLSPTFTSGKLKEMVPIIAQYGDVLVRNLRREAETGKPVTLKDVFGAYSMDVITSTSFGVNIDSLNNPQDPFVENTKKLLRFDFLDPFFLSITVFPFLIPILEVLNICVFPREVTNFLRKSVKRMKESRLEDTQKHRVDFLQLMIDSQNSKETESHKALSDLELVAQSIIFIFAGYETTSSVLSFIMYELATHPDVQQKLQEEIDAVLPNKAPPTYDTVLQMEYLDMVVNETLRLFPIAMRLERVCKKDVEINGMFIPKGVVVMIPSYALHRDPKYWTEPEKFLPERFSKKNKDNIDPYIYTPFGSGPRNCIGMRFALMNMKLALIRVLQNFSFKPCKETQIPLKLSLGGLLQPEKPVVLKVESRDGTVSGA
Source text: as §4

UGT2B7 = UGT2B7 (Homo sapiens, UniProt P16662); test: UGT inhibition assay, UGT2B7; assay type: in vitro ADME
UGT2B7, sequence (P16662 24-529): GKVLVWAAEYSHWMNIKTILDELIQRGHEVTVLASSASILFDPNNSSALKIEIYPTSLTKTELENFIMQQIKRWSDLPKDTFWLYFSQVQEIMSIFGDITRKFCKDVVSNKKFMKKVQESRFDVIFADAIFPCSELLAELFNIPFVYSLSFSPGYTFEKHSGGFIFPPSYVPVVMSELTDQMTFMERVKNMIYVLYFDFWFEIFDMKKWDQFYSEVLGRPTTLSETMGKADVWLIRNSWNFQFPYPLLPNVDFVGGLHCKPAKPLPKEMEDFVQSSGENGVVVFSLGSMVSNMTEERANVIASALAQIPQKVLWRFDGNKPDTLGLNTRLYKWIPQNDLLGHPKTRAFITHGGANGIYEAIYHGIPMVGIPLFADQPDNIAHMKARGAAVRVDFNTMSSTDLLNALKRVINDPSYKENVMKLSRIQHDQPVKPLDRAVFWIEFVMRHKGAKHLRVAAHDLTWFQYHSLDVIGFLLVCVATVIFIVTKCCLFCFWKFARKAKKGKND

[4] = in vitro hepatocyte stability assay, dog; assay type: in vitro ADME; settings: cryopreserved hepatocytes
Protocol: (§5) 2R,6R-hydroxynorketamine was investigated using an in vitro hepatocyte stability assay, during which 2R,6R-hydroxynorketamine was incubated with cryopreserved hepatocytes from 3 test species.

[5] = test system: cryopreserved hepatocytes; test: in vitro hepatocyte stability assay, human; assay type: in vitro ADME
Protocol: as §5

[6] = DSC analysis of compatibility with diluents and capsule shells
[7] = probe midazolam, Substrate = midazolam
[8] = probe testosterone, Substrate = testosterone

5-HT2A, sequence (P28223 whole entry): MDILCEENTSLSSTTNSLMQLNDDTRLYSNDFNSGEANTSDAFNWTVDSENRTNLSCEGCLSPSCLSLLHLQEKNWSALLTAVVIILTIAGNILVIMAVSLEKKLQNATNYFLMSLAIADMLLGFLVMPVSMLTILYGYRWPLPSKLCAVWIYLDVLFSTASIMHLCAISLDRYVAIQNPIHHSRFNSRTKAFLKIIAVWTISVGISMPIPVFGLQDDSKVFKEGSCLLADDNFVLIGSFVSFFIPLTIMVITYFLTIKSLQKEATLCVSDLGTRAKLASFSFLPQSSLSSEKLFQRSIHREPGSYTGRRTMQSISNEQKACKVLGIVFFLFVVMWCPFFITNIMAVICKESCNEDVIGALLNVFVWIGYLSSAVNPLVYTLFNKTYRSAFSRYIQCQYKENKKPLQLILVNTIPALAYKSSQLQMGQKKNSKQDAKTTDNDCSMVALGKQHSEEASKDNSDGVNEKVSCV

N[C@@]1(c2ccccc2Cl)CCC[C@@H](O)C1=O [2R,6R-hydroxynorketamine]
% Inhibition of Control Specific Binding (5-HT2A): 0% | % of Control Specific Binding (5-HT2A): 103.8% | binding to 5HT2A receptor subtype (5-HT2A): does not bind | % Inhibition of Control Specific Binding (5-HT2C): 10% | % of Control Specific Binding (5-HT2C): 91.1% | binding to 5HT2C receptor subtype (5-HT2C): does not bind | % Inhibition of Control Specific Binding [1]: −16% | % of Control Specific Binding [1]: 117.6% | % Inhibition of Control Specific Binding (5-HT transporter): 2% | % of Control Specific Binding (5-HT transporter): 102.0% | % Inhibition of Control Specific Binding (5-HT1, Non-Selective): −9% | % of Control Specific Binding (5-HT1, Non-Selective): 105.4% | binding to 5HT1 receptors (5-HT1, Non-Selective): does not bind | % Inhibition of Control Specific Binding (MAO-B): −1% | % of Control Specific Binding (MAO-B): 100.4% | plasma protein binding (PPB), words (plasma binding proteins [2]): low PPB | plasma protein binding (PPB), words (plasma binding proteins [3]): low PPB | inhibition of CYP2C8 (CYP2C8): did not inhibit | inhibition at 0.4 µM (CYP2C8; human, 0.4 μM): 5.63% | inhibition at 1 µM (CYP2C8; human, 1 μM): 4.91% | inhibition at 4 µM (CYP2C8; human, 4 μM): 12.5% | inhibition at 10 µM (CYP2C8; human, 10 μM): 8.33% | inhibition at 40 µM (CYP2C8; human, 40 μM): 8.35% | inhibition at 100 µM (CYP2C8; human, 100 μM): 2.08% | inhibition of CYP2C9 (CYP2C9): did not inhibit | inhibition at 0.4 µM (CYP2C9; human, 0.4 μM): 4.59% | inhibition at 1 µM (CYP2C9; human, 1 μM): 5.92% | inhibition at 4 µM (CYP2C9; human, 4 μM): 5.8% | inhibition at 10 µM (CYP2C9; human, 10 μM): 11.9% | inhibition at 40 µM (CYP2C9; human, 40 μM): -0.113% | inhibition at 100 µM (CYP2C9; human, 100 μM): -1.33% | inhibition at 0.4 µM (CYP3A4; [7]): 11.5% | inhibition at 1 µM (CYP3A4; [7]): 8.44% | inhibition at 4 µM (CYP3A4; [7]): 15.7% | inhibition at 10 µM (CYP3A4; [7]): 25.7% | inhibition at 40 µM (CYP3A4; [7]): 43.7% | inhibition at 100 µM (CYP3A4; [7]): 57.5% | inhibition at 0.4 µM (CYP3A4; [8]): 1.62% | inhibition at 1 µM (CYP3A4; [8]): -0.509% | inhibition at 4 µM (CYP3A4; [8]): 7.04% | inhibition at 10 µM (CYP3A4; [8]): 12.4% | inhibition at 40 µM (CYP3A4; [8]): 35.2% | inhibition at 100 µM (CYP3A4; [8]): 53.4% | IC50 (CYP3A4; substrate midazolam): 69 µM | IC50 (CYP3A4; substrate testosterone): 81 µM | inhibition of UGT2B7 (UGT2B7): does not inhibit | half-life [4]: 4.9 h | hepatocyte CLint [4]: 4.72 µL/min/1e6 cells | CLint ([5]; Human hepatocytes): −1.07 gL/min/10^6 cells | hepatic clearance in humans ([5]; human hepatocyte stability assay): does not undergo hepatic clearance | substrate of p-gp or Breast Cancer Resistance Protein (BCRP) efflux transporters (Caco-2; Caco-2): not a substrate | permeability (Caco-2; Caco-2 permeability assay): high | compatibility with hydroxypropyl methylcellulose capsule shells [6]: compatibility | compatibility with dicalcium phosphate ([6]; DSC): compatibility | compatibility with microcrystalline cellulose ([6]; DSC): compatibility | compatibility with lactose monohydrate ([6]; DSC, binary mix, 1:2 ratio of API:Excipient): incompatible
